Laboratory results from paper PMC3297362 (Journal of Medicinal Chemistry, 2012).

Experiments:
[1] = target: T1, hCOX-2 in HNSCC 1483 cells (Homo sapiens, UniProt P35354); assay type: cell-based; conditions: at 5 μM
T1 sequence (P35354 18-604): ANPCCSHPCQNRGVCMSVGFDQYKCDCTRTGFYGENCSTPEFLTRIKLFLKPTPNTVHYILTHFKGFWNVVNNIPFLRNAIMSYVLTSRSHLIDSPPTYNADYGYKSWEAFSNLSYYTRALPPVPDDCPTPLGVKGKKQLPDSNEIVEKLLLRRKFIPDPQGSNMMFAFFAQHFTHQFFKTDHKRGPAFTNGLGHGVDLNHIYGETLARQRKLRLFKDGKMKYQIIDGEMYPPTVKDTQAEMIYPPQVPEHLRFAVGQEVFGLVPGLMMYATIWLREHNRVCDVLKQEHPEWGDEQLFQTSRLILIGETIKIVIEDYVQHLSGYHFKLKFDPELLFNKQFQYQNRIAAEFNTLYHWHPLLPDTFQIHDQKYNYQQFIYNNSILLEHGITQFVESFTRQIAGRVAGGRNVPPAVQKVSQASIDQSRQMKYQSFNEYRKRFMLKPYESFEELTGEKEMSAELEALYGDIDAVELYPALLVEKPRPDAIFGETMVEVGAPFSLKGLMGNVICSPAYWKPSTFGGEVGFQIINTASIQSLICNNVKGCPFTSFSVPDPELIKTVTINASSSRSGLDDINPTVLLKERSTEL

[2] = system: peroxisome proliferator-activated receptor (PPAR)γ; conditions: cell culture; cited from earlier work
ovine COX-1 = target: T2, ovine COX-1 (Ovis aries, UniProt P05979); assay type: biochemical
T2 sequence (P05979 25-600): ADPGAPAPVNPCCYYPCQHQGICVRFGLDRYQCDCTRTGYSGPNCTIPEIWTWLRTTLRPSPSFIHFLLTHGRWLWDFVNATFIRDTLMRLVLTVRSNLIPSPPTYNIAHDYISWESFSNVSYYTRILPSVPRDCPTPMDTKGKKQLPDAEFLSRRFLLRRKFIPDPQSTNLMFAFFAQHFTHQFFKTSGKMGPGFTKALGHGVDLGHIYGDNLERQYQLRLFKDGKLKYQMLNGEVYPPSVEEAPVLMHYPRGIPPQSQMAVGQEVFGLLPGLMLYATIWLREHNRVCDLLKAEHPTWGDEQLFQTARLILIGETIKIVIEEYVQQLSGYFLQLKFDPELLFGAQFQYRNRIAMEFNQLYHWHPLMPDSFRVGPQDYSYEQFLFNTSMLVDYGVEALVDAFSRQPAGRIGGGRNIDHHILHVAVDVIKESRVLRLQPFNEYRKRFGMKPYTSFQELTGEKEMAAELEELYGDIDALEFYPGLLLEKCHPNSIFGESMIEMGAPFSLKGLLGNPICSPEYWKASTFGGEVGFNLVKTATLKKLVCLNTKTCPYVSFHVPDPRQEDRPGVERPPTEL

murine COX-2 = target: T3, murine COX-2 (Mus musculus, UniProt Q05769); assay: biochemical; conditions: COX-2 IC50, purified mCOX-2; 5 μM AA
T3 sequence (Q05769 18-604): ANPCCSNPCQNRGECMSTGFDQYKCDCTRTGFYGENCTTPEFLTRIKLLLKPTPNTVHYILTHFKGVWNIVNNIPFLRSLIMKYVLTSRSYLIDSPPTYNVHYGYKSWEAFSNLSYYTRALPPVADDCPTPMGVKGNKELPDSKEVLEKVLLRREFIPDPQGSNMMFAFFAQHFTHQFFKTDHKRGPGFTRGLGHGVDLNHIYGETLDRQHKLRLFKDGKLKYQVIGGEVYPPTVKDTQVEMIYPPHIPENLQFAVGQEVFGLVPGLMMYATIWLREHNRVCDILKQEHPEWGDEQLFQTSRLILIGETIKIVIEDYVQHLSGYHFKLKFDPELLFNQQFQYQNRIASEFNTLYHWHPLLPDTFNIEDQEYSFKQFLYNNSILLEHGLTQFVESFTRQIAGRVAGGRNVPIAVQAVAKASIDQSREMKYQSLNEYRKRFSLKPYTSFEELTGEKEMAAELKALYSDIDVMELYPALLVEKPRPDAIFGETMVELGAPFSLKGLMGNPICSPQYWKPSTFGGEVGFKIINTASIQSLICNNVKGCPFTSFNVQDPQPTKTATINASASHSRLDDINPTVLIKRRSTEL

SMILES | inhibition of hCOX-2 in HNSCC 1483 cells (in words) [1] | activation of PPARγ (in words) [2] | improvement in activity against COX-1 as compared with reference compound 2 (ovine COX-1) | IC50 (murine COX-2) [µM]
CSc1ccc(/C=C2\C=C(CC(=O)O)c3cc(F)ccc32)cc1 [compound 2, (E)-2-(5-fluoro-1-(4-(methylthio)benzylidene)-1H-inden-3-yl)acetic acid] | no inhibition | – | – | –
O=C(O)CC1=C/C(=C\c2ccc(-c3ccccc3)cc2)c2ccc(F)cc21 [compound 13a] | no inhibition | potent activator | – | –
O=C(CC1=C/C(=C\c2ccc(-c3ccccc3)cc2)c2ccc(F)cc21)NS(=O)(=O)C(F)(F)F [compound 21c, (E)-2-(1-([1,1′-Biphenyl]-4-ylmethylene)-5-fluoro-1H-inden-3-yl)-N-((trifluoromethyl)sulfonyl)-acetamide] | – | – | more than 4 fold | 14
